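Tested at 5 concentrations; 48 h exposure; 96-well plates; endpoints linearly interpolated, else capped at highest concentration. Abbreviation: GI50, concentration required for 50% inhibition of growth. At the TGI there is no net growth.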
Columns and labels:
Assay in all cases: growth of human tumour cells (NCI), 48 h
MOLT-4 leukemia = system: MOLT-4 leukemia
OVCAR-4 ovarian = system: OVCAR-4 ovarian
HCC-2998 colon = system: HCC-2998 colon
SK-MEL-2 melanoma = system: SK-MEL-2 melanoma
SN12C renal = system: SN12C renal
NCI/ADR-RES ovarian = system: NCI/ADR-RES ovarian
U251 CNS = system: U251 CNS
HS 578T breast = system: HS 578T breast
HT29 colon = system: HT29 colon
MALME-3M melanoma = system: MALME-3M melanoma

CN1CCC(CNc2cc(C3(C(=O)Nc4cc(C(=O)Nc5ccc(Cl)c(C(F)(F)F)c5)ccc4F)CC3)ncn2)CC1
GI50 (MOLT-4 leukemia): 2.03 µM
TGI (MOLT-4 leukemia): 6.09 µM
GI50 (OVCAR-4 ovarian): 13.6 µM
TGI (OVCAR-4 ovarian): 39.5 µM
GI50 (HCC-2998 colon): 2.39 µM
TGI (HCC-2998 colon): 5.22 µM
GI50 (SK-MEL-2 melanoma): 1.9 µM
TGI (SK-MEL-2 melanoma): 4.02 µM
GI50 (SN12C renal): 2.56 µM
TGI (SN12C renal): 8.92 µM
GI50 (NCI/ADR-RES ovarian): 5.46 µM
TGI (NCI/ADR-RES ovarian): 36.6 µM
GI50 (U251 CNS): 1.63 µM
TGI (U251 CNS): 3.62 µM
GI50 (HS 578T breast): 1.99 µM
TGI (HS 578T breast): 6.19 µM
GI50 (HT29 colon): 1.73 µM
TGI (HT29 colon): 5.09 µM

Cn1c(=O)c2c(nc3n(CC(O)CCl)c(=O)ccn23)n(C)c1=O (configuration not stated)
TGI (MOLT-4 leukemia): 92.1 µM
TGI (OVCAR-4 ovarian): > 100 µM
TGI (HCC-2998 colon): > 100 µM
TGI (SK-MEL-2 melanoma): > 100 µM
TGI (SN12C renal): > 100 µM
TGI (NCI/ADR-RES ovarian): > 100 µM
TGI (U251 CNS): > 100 µM
TGI (HS 578T breast): > 100 µM
TGI (HT29 colon): > 100 µM

NC(=O)Nc1c(Cl)cc(S(N)(=O)=O)cc1Cl
TGI (MOLT-4 leukemia): > 100 µM
TGI (OVCAR-4 ovarian): > 100 µM
TGI (MALME-3M melanoma): > 100 µM
TGI (SK-MEL-2 melanoma): > 100 µM
TGI (SN12C renal): > 100 µM
TGI (NCI/ADR-RES ovarian): > 100 µM
TGI (U251 CNS): > 100 µM
TGI (HS 578T breast): > 100 µM
TGI (HT29 colon): > 100 µM

O=C(/C=C(/C=C/c1ccc2[nH]ccc2c1)OB(F)F)/C=C/c1ccc2[nH]ccc2c1
GI50 (MOLT-4 leukemia): 2.06 µM
TGI (MOLT-4 leukemia): > 100 µM
GI50 (OVCAR-4 ovarian): 0.726 µM
TGI (OVCAR-4 ovarian): 6.46 µM
GI50 (MALME-3M melanoma): 2.62 µM
TGI (MALME-3M melanoma): > 100 µM
GI50 (SK-MEL-2 melanoma): 4.6 µM
TGI (SK-MEL-2 melanoma): 86.2 µM
GI50 (SN12C renal): 2.6 µM
TGI (SN12C renal): 18.9 µM
GI50 (NCI/ADR-RES ovarian): 2.7 µM
TGI (NCI/ADR-RES ovarian): > 100 µM
GI50 (HS 578T breast): 3.96 µM
TGI (HS 578T breast): > 100 µM
GI50 (HT29 colon): 1.47 µM
TGI (HT29 colon): > 100 µM

CCn1nc(C)c2c1C(=O)NCC(=O)N2
TGI (OVCAR-4 ovarian): > 100 µM
TGI (SN12C renal): > 100 µM
TGI (U251 CNS): > 100 µM
TGI (HS 578T breast): > 100 µM
TGI (HT29 colon): > 100 µM

CC(N=NNc1ccc(-c2nc3ccccc3[nH]2)cc1)C(=O)O (configuration not stated)
TGI (MOLT-4 leukemia): > 100 µM
TGI (OVCAR-4 ovarian): > 100 µM
TGI (MALME-3M melanoma): > 100 µM
TGI (SK-MEL-2 melanoma): > 100 µM
TGI (SN12C renal): > 100 µM
TGI (NCI/ADR-RES ovarian): 90.6 µM
TGI (U251 CNS): 60.8 µM
TGI (HS 578T breast): > 100 µM
TGI (HT29 colon): > 100 µM

O=c1[nH]/c(=C/c2ccc(OCc3ccccc3)cn2)c(=O)[nH]/c1=C/c1ccccc1
TGI (MOLT-4 leukemia): > 100 µM
TGI (OVCAR-4 ovarian): > 100 µM
TGI (HCC-2998 colon): 0.521 µM
TGI (SK-MEL-2 melanoma): > 100 µM
TGI (NCI/ADR-RES ovarian): 0.229 µM
TGI (U251 CNS): > 91.6 µM
TGI (HS 578T breast): > 100 µM
TGI (HT29 colon): > 100 µM

Cc1ccc(C(=N)c2ccccc2Cc2cccc3ccccc23)c2ccccc12
TGI (MOLT-4 leukemia): > 100 µM
TGI (OVCAR-4 ovarian): > 100 µM
TGI (MALME-3M melanoma): > 100 µM
TGI (SK-MEL-2 melanoma): > 100 µM
TGI (SN12C renal): > 100 µM
TGI (NCI/ADR-RES ovarian): > 100 µM
TGI (U251 CNS): > 100 µM
TGI (HS 578T breast): > 100 µM
TGI (HT29 colon): > 100 µM

COc1cc(/C=C2\C(=O)N(c3cccc([N+](=O)[O-])c3)C(c3ccccc3)S2(=O)=O)cc(OC)c1OC (configuration not stated)
TGI (MOLT-4 leukemia): > 100 µM
TGI (OVCAR-4 ovarian): > 100 µM
TGI (HCC-2998 colon): > 100 µM
TGI (MALME-3M melanoma): > 100 µM
TGI (SK-MEL-2 melanoma): > 100 µM
TGI (SN12C renal): > 100 µM
TGI (NCI/ADR-RES ovarian): > 100 µM
TGI (U251 CNS): > 100 µM
TGI (HT29 colon): > 100 µM

COc1ccc2c(c1)C(=O)CC1c3cnccc3C(=O)N21 (configuration not stated)
TGI (MOLT-4 leukemia): > 100 µM
TGI (OVCAR-4 ovarian): > 100 µM
TGI (HCC-2998 colon): > 100 µM
TGI (MALME-3M melanoma): > 100 µM
TGI (SK-MEL-2 melanoma): > 100 µM
TGI (SN12C renal): > 100 µM
TGI (NCI/ADR-RES ovarian): > 100 µM
TGI (U251 CNS): > 100 µM
TGI (HT29 colon): > 100 µM

CCCCCOc1ccc(C=Nc2ccc(CCc3ccc(N=Cc4ccc(OCCCCC)cc4)cc3)cc2)cc1
TGI (MOLT-4 leukemia): > 100 µM
TGI (OVCAR-4 ovarian): > 100 µM
TGI (HCC-2998 colon): > 100 µM
TGI (MALME-3M melanoma): > 100 µM
TGI (SK-MEL-2 melanoma): > 100 µM
TGI (SN12C renal): > 100 µM
TGI (NCI/ADR-RES ovarian): > 100 µM
TGI (U251 CNS): > 100 µM
TGI (HT29 colon): > 100 µM

c1ccc(-c2csc3c4ccccc4c4ccccc4[n+]23)cc1
TGI (MOLT-4 leukemia): > 25.5 µM
TGI (OVCAR-4 ovarian): 18.3 µM
TGI (HCC-2998 colon): 13 µM
TGI (MALME-3M melanoma): 3.21 µM
TGI (SK-MEL-2 melanoma): 7.71 µM
TGI (SN12C renal): 11.2 µM
TGI (U251 CNS): 13.8 µM
TGI (HT29 colon): 20.6 µM

C=CCSC1=N/C(=C\c2ccc(Cl)cc2)C(=O)N1CC=C
TGI (OVCAR-4 ovarian): 94.7 µM
TGI (HCC-2998 colon): > 100 µM
TGI (SK-MEL-2 melanoma): 76 µM
TGI (SN12C renal): 95.1 µM
TGI (NCI/ADR-RES ovarian): > 100 µM
TGI (U251 CNS): 64.6 µM
TGI (HS 578T breast): > 100 µM
TGI (HT29 colon): > 100 µM

CC1=NNC(=O)C1C1C(=O)NN=C(c2c[nH]c3ccccc23)C1Br (configuration not stated)
TGI (MOLT-4 leukemia): 80.3 µM
TGI (MALME-3M melanoma): > 100 µM
TGI (SK-MEL-2 melanoma): 84.8 µM
TGI (SN12C renal): > 100 µM
TGI (NCI/ADR-RES ovarian): > 100 µM
TGI (U251 CNS): > 100 µM
TGI (HS 578T breast): > 100 µM
TGI (HT29 colon): > 100 µM

COc1ccc(N2CC(=O)N(C(=O)COc3ccc(OCC(=O)N4C(=O)CN(c5ccc(OC)cc5)C4=S)cc3)C2=S)cc1
TGI (MOLT-4 leukemia): > 100 µM
TGI (OVCAR-4 ovarian): > 100 µM
TGI (HCC-2998 colon): > 100 µM
TGI (MALME-3M melanoma): > 100 µM
TGI (SK-MEL-2 melanoma): > 100 µM
TGI (SN12C renal): > 100 µM
TGI (NCI/ADR-RES ovarian): > 100 µM
TGI (U251 CNS): > 100 µM
TGI (HT29 colon): > 100 µM

C[C@@]1(O)C2CC3CC1(c1ccccc1)CC(/C3=N/O)/C2=N\O (some centres not stated)
TGI (MOLT-4 leukemia): > 100 µM
TGI (OVCAR-4 ovarian): > 100 µM
TGI (HCC-2998 colon): > 100 µM
TGI (MALME-3M melanoma): > 100 µM
TGI (SK-MEL-2 melanoma): > 100 µM
TGI (SN12C renal): > 100 µM
TGI (NCI/ADR-RES ovarian): > 100 µM
TGI (U251 CNS): > 100 µM
TGI (HT29 colon): > 100 µM
